Source: publication PMC8222254, “Self-assembly of an anion receptor with metal-dependent kinase inhibition and potent in vitro anti-cancer properties” (Nature Communications, 2021)
Values joined by “and” are separate entries in the source; they are usually repeats but may differ in a detail not shown here. Equal values may be shown once.

Assays:
Experiment in all cases: Kinase inhibition screen, cell-free 33P ATP assay at 10 μM
Type in all cases: biochemical
[1] = biological target: T1, 140 purified human kinases (Homo sapiens, UniProt P54753)
T1 sequence (P54753 34-998): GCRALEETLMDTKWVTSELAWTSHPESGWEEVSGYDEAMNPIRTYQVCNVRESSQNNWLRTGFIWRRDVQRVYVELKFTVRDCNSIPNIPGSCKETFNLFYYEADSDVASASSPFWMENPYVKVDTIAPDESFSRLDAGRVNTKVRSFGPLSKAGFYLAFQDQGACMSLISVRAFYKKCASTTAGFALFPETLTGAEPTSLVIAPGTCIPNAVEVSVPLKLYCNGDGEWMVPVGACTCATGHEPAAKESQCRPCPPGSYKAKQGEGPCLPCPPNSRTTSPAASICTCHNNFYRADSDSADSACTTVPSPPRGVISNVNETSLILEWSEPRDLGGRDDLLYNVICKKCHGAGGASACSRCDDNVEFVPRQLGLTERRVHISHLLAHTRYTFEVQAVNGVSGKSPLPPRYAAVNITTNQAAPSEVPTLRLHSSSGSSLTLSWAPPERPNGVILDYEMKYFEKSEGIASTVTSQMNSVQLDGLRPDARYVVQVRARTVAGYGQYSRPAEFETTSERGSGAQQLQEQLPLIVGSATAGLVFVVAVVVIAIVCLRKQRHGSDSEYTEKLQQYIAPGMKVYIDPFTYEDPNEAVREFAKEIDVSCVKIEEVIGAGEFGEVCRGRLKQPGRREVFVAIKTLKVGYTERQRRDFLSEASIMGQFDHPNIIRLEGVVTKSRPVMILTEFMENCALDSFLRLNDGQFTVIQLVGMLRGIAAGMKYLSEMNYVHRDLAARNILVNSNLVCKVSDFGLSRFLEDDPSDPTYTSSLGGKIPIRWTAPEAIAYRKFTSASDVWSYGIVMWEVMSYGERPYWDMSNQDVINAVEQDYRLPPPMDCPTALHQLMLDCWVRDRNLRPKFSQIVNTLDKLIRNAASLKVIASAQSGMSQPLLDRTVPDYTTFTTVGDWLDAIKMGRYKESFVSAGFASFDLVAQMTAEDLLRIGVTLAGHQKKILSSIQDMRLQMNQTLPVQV
Procedure: (§1) [L2Cu3]^6+ and [L2Zn3]^6+ were submitted to the MRC Protein Phosphorylation and Ubiquitination Unit International Centre for Kinase Profiling (University of Dundee) and tested in duplicate (at 10 μM) against a series of 140 purified human kinases in a cell-free kinase assay using ^33P ATP[55],[56]. The kinase gene IDs from the screen were then translated into common IDs (HGNC symbol) using biomaRt package[57],[58] in R[59] and R Studio[60] and used as input to the KinMap programme.

[2] = biological target: 140 purified human kinases (Homo sapiens, UniProt Q9H0K1)
Procedure: as §1

[3] = biological target: T2, 140 purified human kinases (Homo sapiens, UniProt P29323)
T2 sequence (P29323 19-1055): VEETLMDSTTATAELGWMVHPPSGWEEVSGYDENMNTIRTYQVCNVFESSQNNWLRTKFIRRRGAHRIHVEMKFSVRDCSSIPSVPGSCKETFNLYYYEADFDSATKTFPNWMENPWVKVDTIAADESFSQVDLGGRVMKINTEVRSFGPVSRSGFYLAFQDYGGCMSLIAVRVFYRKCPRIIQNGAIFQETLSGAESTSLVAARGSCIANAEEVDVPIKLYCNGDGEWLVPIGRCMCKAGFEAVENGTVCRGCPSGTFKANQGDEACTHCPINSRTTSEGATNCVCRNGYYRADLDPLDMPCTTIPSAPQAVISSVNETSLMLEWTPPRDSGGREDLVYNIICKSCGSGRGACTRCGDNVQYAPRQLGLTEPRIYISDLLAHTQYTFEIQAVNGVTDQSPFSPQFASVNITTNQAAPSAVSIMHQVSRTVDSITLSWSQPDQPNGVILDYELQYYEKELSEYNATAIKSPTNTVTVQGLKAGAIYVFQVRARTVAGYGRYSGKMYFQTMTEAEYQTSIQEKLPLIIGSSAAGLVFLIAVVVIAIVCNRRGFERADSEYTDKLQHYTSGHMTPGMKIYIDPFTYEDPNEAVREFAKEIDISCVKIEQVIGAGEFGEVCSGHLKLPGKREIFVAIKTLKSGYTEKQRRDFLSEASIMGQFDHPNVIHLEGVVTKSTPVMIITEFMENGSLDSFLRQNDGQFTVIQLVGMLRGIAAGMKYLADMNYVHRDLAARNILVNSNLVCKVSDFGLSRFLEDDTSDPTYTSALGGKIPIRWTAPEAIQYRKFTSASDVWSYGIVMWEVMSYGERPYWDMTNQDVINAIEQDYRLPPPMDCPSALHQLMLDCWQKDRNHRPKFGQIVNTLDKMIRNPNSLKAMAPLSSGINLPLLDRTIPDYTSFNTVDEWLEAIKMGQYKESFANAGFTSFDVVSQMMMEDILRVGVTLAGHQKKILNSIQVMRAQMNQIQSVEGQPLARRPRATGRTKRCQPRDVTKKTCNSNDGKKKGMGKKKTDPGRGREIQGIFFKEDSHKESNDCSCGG
Procedure: as §1

[4] = biological target: 140 purified human kinases (Homo sapiens, UniProt P23443)
Procedure: as §1

Sequence of 140 purified human kinases (Homo sapiens, UniProt P23443) (P23443 whole entry): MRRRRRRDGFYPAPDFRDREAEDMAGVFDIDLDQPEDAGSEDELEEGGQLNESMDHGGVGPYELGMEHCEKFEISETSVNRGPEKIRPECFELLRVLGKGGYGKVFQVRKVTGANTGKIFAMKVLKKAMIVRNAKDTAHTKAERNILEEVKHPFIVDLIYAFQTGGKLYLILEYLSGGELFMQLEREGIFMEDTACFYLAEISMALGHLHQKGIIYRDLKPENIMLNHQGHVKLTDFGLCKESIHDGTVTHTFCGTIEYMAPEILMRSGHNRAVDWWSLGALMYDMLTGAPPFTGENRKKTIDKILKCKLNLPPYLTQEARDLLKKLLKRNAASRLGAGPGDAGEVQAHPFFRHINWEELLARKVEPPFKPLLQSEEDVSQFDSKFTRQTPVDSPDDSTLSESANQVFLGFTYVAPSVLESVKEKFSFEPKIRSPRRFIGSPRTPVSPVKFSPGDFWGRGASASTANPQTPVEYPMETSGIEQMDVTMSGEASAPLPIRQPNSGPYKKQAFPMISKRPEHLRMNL
Sequence of 140 purified human kinases (Homo sapiens, UniProt Q9H0K1) (Q9H0K1 whole entry): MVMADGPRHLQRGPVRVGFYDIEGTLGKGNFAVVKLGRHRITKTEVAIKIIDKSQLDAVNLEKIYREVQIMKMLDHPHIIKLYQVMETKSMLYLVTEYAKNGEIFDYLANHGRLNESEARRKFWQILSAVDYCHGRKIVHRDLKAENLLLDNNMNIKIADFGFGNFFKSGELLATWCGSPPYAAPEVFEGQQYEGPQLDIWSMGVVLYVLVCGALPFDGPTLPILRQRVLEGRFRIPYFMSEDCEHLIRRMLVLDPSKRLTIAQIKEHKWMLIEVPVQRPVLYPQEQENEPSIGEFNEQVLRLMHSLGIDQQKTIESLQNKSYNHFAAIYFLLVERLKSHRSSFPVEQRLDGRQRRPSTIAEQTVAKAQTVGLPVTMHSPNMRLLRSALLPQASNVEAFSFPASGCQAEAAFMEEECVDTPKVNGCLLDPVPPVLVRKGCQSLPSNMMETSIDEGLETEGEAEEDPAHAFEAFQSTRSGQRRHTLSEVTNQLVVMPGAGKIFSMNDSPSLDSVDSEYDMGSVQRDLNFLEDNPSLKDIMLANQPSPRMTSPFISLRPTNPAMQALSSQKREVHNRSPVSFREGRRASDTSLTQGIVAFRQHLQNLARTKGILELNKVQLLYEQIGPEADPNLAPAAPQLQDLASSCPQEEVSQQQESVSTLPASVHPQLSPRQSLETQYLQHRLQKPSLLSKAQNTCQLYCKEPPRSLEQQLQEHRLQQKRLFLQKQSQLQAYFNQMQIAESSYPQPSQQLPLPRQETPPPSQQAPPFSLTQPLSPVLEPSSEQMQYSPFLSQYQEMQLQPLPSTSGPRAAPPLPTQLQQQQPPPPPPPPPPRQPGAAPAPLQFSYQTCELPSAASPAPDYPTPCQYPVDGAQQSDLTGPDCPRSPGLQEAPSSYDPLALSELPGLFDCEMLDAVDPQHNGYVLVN

[Cu+2].[Cu+2].[Cu+2].c1ccc(-c2csc(NCCN(CCNc3nc(-c4ccccn4)cs3)CCNc3nc(-c4ccccn4)cs3)n2)nc1.c1ccc(-c2csc(NCCN(CCNc3nc(-c4ccccn4)cs3)CCNc3nc(-c4ccccn4)cs3)n2)nc1 [[L2Cu3]6+]
% Inhibition Run 1 ([1]; EPH-B3): 12.5% | % Inhibition Run 2 ([1]; EPH-B3): 19.2% | % Inhibition, Mean ([1]; EPH-B3): 16% | mean % activity ([1]; EPH-B3): 84% | % activity ([1]; EPH-B3, Run 1): 87.5% | % activity ([1]; EPH-B3, Run 2): 80.8% | % Inhibition Run 1 ([2]; SIK2): 88.3% | % Inhibition Run 2 ([2]; SIK2): 90.4% | % Inhibition, Mean ([2]; SIK2): 89% | mean % activity ([2]; SIK2): 11% | % activity ([2]; SIK2, Run 1): 11.7% | % activity ([2]; SIK2, Run 2): 9.6% | % Inhibition Run 1 ([3]; EPH-B2): 57.3% | % Inhibition Run 2 ([3]; EPH-B2): 57.8% | % Inhibition, Mean ([3]; EPH-B2): 58% | mean % activity ([3]; EPH-B2): 42% | % activity ([3]; EPH-B2, Run 1): 42.7% | % activity ([3]; EPH-B2, Run 2): 42.2% | % Inhibition Run 1 ([4]; S6K1): 79% | % Inhibition Run 2 ([4]; S6K1): 89.6% | % Inhibition, Mean ([4]; S6K1): 84% | mean % activity ([4]; S6K1): 16% | % activity ([4]; S6K1, Run 1): 21% | % activity ([4]; S6K1, Run 2): 10.4%

CC(=O)[O-].CC(=O)[O-].CC(=O)[O-].CC(=O)[O-].CC(=O)[O-].CC(=O)[O-].[Zn+2].[Zn+2].[Zn+2].c1ccc(-c2csc(NCCN(CCNc3nc(-c4ccccn4)cs3)CCNc3nc(-c4ccccn4)cs3)n2)nc1.c1ccc(-c2csc(NCCN(CCNc3nc(-c4ccccn4)cs3)CCNc3nc(-c4ccccn4)cs3)n2)nc1 [[L2Zn3]6+]
% Inhibition, Mean ([1]; EPH-B3): 51% | % Inhibition, Run 1 / Run 2 ([1]; EPH-B3): 59% and 44% | mean % activity ([1]; EPH-B3): 49% | % activity ([1]; EPH-B3, duplicate runs): 41% and 56% | % Inhibition, Mean ([2]; SIK2): 68% | % Inhibition, Run 1 / Run 2 ([2]; SIK2): 72% and 64% | mean % activity ([2]; SIK2): 32% | % activity ([2]; SIK2, duplicate runs): 29% and 36% | % Inhibition, Mean ([3]; EPH-B2): 88% | % Inhibition, Run 1 / Run 2 ([3]; EPH-B2): 89% and 87% | mean % activity ([3]; EPH-B2): 12% | % Activity inhibition Mean ([3]; EPH-B2, 10 µM): 88.0% | % Activity inhibition Run 1 ([3]; EPH-B2, 10 µM): 89% | % Activity inhibition Run 2 ([3]; EPH-B2, 10 µM): 87% | % Activity remaining Run 1 ([3]; EPH-B2, 10 µM): 11% | % Activity remaining Run 2 ([3]; EPH-B2, 10 µM): 13% | % activity ([3]; EPH-B2, duplicate runs): 11% and 13% | % Inhibition, Mean ([4]; S6K1): 42% | mean % activity ([4]; S6K1): 58% | % activity ([4]; S6K1, duplicate runs): 43% and 74%
